Converted amounts (≈) assume the structure as drawn. “Also recorded” adds a separate entry of the source.

One data set relates to herpes simplex virus type 2 (HSV-2). Nature of the data set: Inhibition mechanism of action: virus adsorption. It is filed as cell-based, human herpes simplex virus type 2. Particulars: Vero cells pretreated with compound at safe concentration 1 h at 4 °C, then HSV-2 MOI = 1, 72 h, MTT. As for the experimental part:
To gain a better understanding of how each compound’s antiviral activity inhibits specific steps in the viral cycle, we investigated three mechanisms: virus adsorption, virus replication, and viral fusion (virucidal). For the adsorption mechanism, we seeded 100 µl of cell suspension into 96-well cell culture plates under the previously mentioned conditions. After 24 h, the medium was discarded, and the adherent cells were washed with 1x PBS. Then, we added 100 µl of each promising compound at a pretested safe cytotoxic concentration (CC50) to the cells in triplicate. The plates were then incubated at 4 °C for 1 h to allow the compounds to adsorb onto the cell receptors. After incubation, the compound was removed, and the cells were washed again with 1x PBS. Next, we added 100 µl of the virus mixture (MOI = 1) to each well and incubated it for 1 h at 37 °C in a CO2 incubator. The virus was removed, and the cells were washed once more with 1x PBS. Finally, we added 100 µl of maintenance media containing 3% bovine serum albumin (BSA) and incubated the plates for 72 h at 37 °C in a 5% CO2 incubator. For the replication mechanism, we added 100 µl of diluted virus (MOI = 1) to a preseeded 96-well cell culture plate and incubated it for 1 h at 37 °C in a CO2 incubator. […] Finally, we measured the absorbance at λ = 570 nm via a plate reader (FLUOstar Omega Ω).
Regarding `CSC1NC(=O)C(C#N)C2(CCCCC2)N1` (stereo not drawn) [Compound 2], the “inhibition of HSV-2 adsorption” value is 32%.
As for `N#CC1(/N=N/c2ccc(S(=O)(=O)Nc3ncccn3)cc2)C(=O)NC(=S)NC12CCCCC2` (stereo not drawn) [Compound 5c], the “inhibition of HSV-2 adsorption” value is recorded as 42%.

Another data set has the same test system. As to the kind of experiment: Inhibition mechanism of action: virus replication. It is filed as cell-based, human herpes simplex virus type 2. Conditions: Vero cells infected with HSV-2 MOI = 1 for 1 h, then compound, 72 h, MTT. As for the experimental part:
(§1) To gain a better understanding of how each compound’s antiviral activity inhibits specific steps in the viral cycle, we investigated three mechanisms: virus adsorption, virus replication, and viral fusion (virucidal). For the adsorption mechanism, we seeded 100 µl of cell suspension into 96-well cell culture plates under the previously mentioned conditions. After 24 h, the medium was discarded, and the adherent cells were washed with 1x PBS. Then, we added 100 µl of each promising compound at a pretested safe cytotoxic concentration (CC50) to the cells in triplicate. The plates were then incubated at 4 °C for 1 h to allow the compounds to adsorb onto the cell receptors. After incubation, the compound was removed, and the cells were washed again with 1x PBS. Next, we added 100 µl of the virus mixture (MOI = 1) to each well and incubated it for 1 h at 37 °C in a CO2 incubator. The virus was removed, and the cells were washed once more with 1x PBS. Finally, we added 100 µl of maintenance media containing 3% bovine serum albumin (BSA) and incubated the plates for 72 h at 37 °C in a 5% CO2 incubator. For the replication mechanism, we added 100 µl of diluted virus (MOI = 1) to a preseeded 96-well cell culture plate and incubated it for 1 h at 37 °C in a CO2 incubator. After incubation, the virus was removed, and 100 µl of each compound was added in triplicate. The plates were then incubated for 1 h at 37 °C in a CO2 incubator. Next, 100 µl of maintenance medium was added to each well. For the virucidal mechanism, we mixed an equal volume of the safe concentration of the pretested compound with the virus dilution (MOI = 1) and incubated the mixture at room temperature for 1 h. We subsequently prepared twofold serial dilutions of the mixture and inoculated them into the cells, which were then incubated for 1 h at 37 °C in a CO2 incubator. After incubation, the supernatant was removed, the cells were washed, and 100 µl of maintenance media was added. […] Finally, we measured the absorbance at λ = 570 nm via a plate reader (FLUOstar Omega Ω).
In the case of `CSC1NC(=O)C(C#N)C2(CCCCC2)N1` (stereo not drawn) [Compound 2], the “inhibition of HSV-2 replication” value is recorded as 26%.
Same read-out and setting: as for `CC(=O)C(SC1NC(=O)C(C#N)C2(CCCCC2)N1)C(=O)Nc1ccccc1` (stereo not drawn) [Compound 3, 2-((5-cyano-4-oxo-1,3-diazaspiro[5.5]undecan-2-yl)thio)-3-oxo-N-phenylbutanamide], the figure is 34%.
In the case of `N#CC1(/N=N/c2ccc(S(=O)(=O)Nc3ncccn3)cc2)C(=O)NC(=S)NC12CCCCC2` (stereo not drawn) [Compound 5c], the “inhibition of HSV-2 replication” value came out at 30%.

Another data set shares this test system. Nature of the data set: Inhibition mechanism of action: virucidal. It is filed as cell-based, human herpes simplex virus type 2. Particulars: compound mixed with HSV-2 (MOI = 1) 1 h at room temperature before inoculation of Vero cells, 72 h, MTT. As for the experimental part: as §1
For the compound `CSC1NC(=O)C(C#N)C2(CCCCC2)N1` (stereo not drawn) [Compound 2], the “inhibition by virucidal mechanism” value is 8%.
`CC(=O)C(SC1NC(=O)C(C#N)C2(CCCCC2)N1)C(=O)Nc1ccccc1` (stereo not drawn) [Compound 3, 2-((5-cyano-4-oxo-1,3-diazaspiro[5.5]undecan-2-yl)thio)-3-oxo-N-phenylbutanamide]: the “inhibition by virucidal mechanism” value stood at 8%.
Still for that read-out and setting: as for `N#CC1(/N=N/c2ccc(S(=O)(=O)Nc3ncccn3)cc2)C(=O)NC(=S)NC12CCCCC2` (stereo not drawn) [Compound 5c], the figure is 15%.

The subject of the next data set is Caspase-3 protein expression. As to the kind of experiment: Western blot of Caspase-3 protein expression in HSV-2-infected Vero cells. It counts as cell-based, African green monkey. Conditions: HSV-2-infected Vero cells (MOI = 1) treated at IC50; 1, 3, 6, 12 and 24 h postinfection. As for the experimental part:
A 3 ml cell suspension was cultured in six-well cell culture plates supplemented with complete DMEM and then incubated at 37 °C in a 5% CO2 incubator for 24 h. After incubation, the supernatant was discarded, and the cell monolayer was washed with 3 ml of 1x PBS. The cell monolayer was then treated in duplicate according to the IC50. Duplicates for cell and virus control were included. The cell pellets were collected at 1, 3, 6, 12, and 24 h postinfection. The cell pellets were lysed with ice-cold RIPA lysis buffer supplemented with fresh protease inhibitor cocktail, incubated for 30 min on ice, and centrifuged at 15,000 RPM at 4 °C for 20 min, after which the supernatant was transferred to a fresh tube. The total water-soluble protein concentration was quantified via a bicinchoninic acid protein assay kit (Micro BCA™ Protein Assay Kit, REF: 23235; Thermo Scientific). Ten micrograms of protein were loaded in 2x Laemmli buffer and separated via 12% sodium dodecyl sulfate–polyacrylamide gel electrophoresis (SDS‒PAGE) along with a protein ladder (Cat. No. PM008-0500, GeneDirex, Taiwan). The proteins were transferred to a 0.2 μm PVDF membrane (REF.03010040001, Sigma Aldrich, St. Louis, MO, USA) by a Mini-PROTEAN® Tetra Cell and Mini Trans-Blot (Bio-Rad) in transfer buffer (Bio-Rad Tris/Glycine transfer buffer Cat. #1610734) for 45 min at 100 V and 350 mA. β-actin (REF. No. MA5-11869; Invitrogen) was detected as a housekeeping protein against the Caspase-3 mAb (REF. No. 9662 S, Cell Signaling, Danvers, MA, USA) at a 1:1000 dilution via horseradish peroxidase-conjugated anti-mouse IgG (61-6520; Invitrogen) and anti-rabbit IgG (31460; Invitrogen) diluted 1:3000. Bands were detected via SuperSignal™ West Pico PLUS Chemiluminescent Substrate enhanced chemiluminescence (ECL, REF. 34577, Thermo Scientific, USA). Images were captured with a Bio-Rad ChemiDoc gel documentation imaging system and analyzed by Image Lab (Bio-Rad 6.1).
As for `CSC1NC(=O)C(C#N)C2(CCCCC2)N1` (stereo not drawn) [Compound 2], the “Caspase-3 protein expression level vs HSV-2 virus control” value is recorded as “decreased; also recorded: slight changes”.
Regarding `CC(=O)C(SC1NC(=O)C(C#N)C2(CCCCC2)N1)C(=O)Nc1ccccc1` (stereo not drawn) [Compound 3, 2-((5-cyano-4-oxo-1,3-diazaspiro[5.5]undecan-2-yl)thio)-3-oxo-N-phenylbutanamide], the “Caspase-3 protein expression level vs HSV-2 virus control” value was “decreased; also recorded: significant decrease”.
Same read-out and setting: the entry for `N#CC1(/N=N/c2ccc(S(=O)(=O)Nc3ncccn3)cc2)C(=O)NC(=S)NC12CCCCC2` (stereo not drawn) [Compound 5c] is “decreased; also recorded: slight changes”.

The next data set concerns herpes simplex virus type 2 (HSV-2). As to the kind of experiment: Antiviral activity screening by MTT. It is filed as cell-based, human herpes simplex virus type 2. Conditions: Human alphaherpesvirus 2; HSV-2 (MOI = 1) in Vero cells, 72 h, MTT. The procedure: In accordance with the previous section, the CC50 (50% cytotoxic concentration) of each compound was determined as the starting point for screening its antiviral activity. A volume of 100 µL of cell suspension containing 10^4 cells was added to each well of a 96-well plate. The plates with the cells were then placed in a 5% humidified CO2 incubator at 37 °C for 24 h to allow the cells to adhere and form a monolayer. The cell monolayers were subsequently washed once with 1x phosphate-buffered saline (PBS) and infected with herpes simplex virus type 2 (HSV-2) (MOI = 1) in triplicate for 1 h. After the infection period, 100 µL of each compound’s serial dilution was added to the infected cells. A triplicate of untreated infected cells was included as a positive control (VC), and the mixture was incubated for 72 h at 37 °C in a 5% CO2 incubator. Following the 72-hour incubation, the supernatant medium was removed, and the cell monolayers were washed with 1x PBS. Then, 25 µL of a 0.5 mg/mL solution of MTT (3-(4,5-dimethylthiazol-2-yl)-2,5-diphenyltetrazolium bromide) obtained from Sigma‒Aldrich, Saint Louis, MO, USA, was added to each well and incubated for 2 h at 37 °C. The MTT reagent was subsequently discarded, and 200 µL of acidified isopropanol (1 N HCl in 99.9% isopropanol) was added to dissolve the formazan crystals formed by the viable cells. Finally, the color intensity was measured, and the absorbance was recorded via an ELISA plate reader. The data obtained were used to calculate the IC50 values (50% inhibitory concentration) via nonlinear regression analysis. This was accomplished by plotting the logarithm of the inhibitor concentration against the normalized response. The analysis was performed via GraphPad Prism 5 analysis software.
On to `CSC1NC(=O)C(C#N)C2(CCCCC2)N1` (stereo not drawn) [Compound 2], for which half-maximal inhibition (IC50) was put at 130 µg/mL (≈ 544 µM).
Same read-out and setting: as for `CC(=O)C(SC1NC(=O)C(C#N)C2(CCCCC2)N1)C(=O)Nc1ccccc1` (stereo not drawn) [Compound 3, 2-((5-cyano-4-oxo-1,3-diazaspiro[5.5]undecan-2-yl)thio)-3-oxo-N-phenylbutanamide], the figure is 45.4 µg/mL (≈ 113 µM).
`N#CC1(/N=N/c2ccccc2)C(=O)NC(=S)NC12CCCCC2` (stereo not drawn) [Compound 5a]: the IC50 came out at 974 µg/mL (≈ 2970 µM).
On the same count and under the same terms, as for `N#CC1(/N=N/c2ccc(S(N)(=O)=O)cc2)C(=O)NC(=S)NC12CCCCC2` (stereo not drawn) [Compound 5b], the figure is 536 µg/mL (≈ 1320 µM).
`N#CC1(/N=N/c2ccc(S(=O)(=O)Nc3ncccn3)cc2)C(=O)NC(=S)NC12CCCCC2` (stereo not drawn) [Compound 5c] displayed an IC50 of 13.9 µg/mL (≈ 28.8 µM).

The same data set, now with this note: selectivity index, CC50 (Vero) / IC50 (HSV-2).
As to `N#CC1(/N=N/c2ccccc2)C(=O)NC(=S)NC12CCCCC2` (stereo not drawn) [Compound 5a], the SI stood at 0.045.
On to `N#CC1(/N=N/c2ccc(S(N)(=O)=O)cc2)C(=O)NC(=S)NC12CCCCC2` (stereo not drawn) [Compound 5b], for which the SI is given as 0.231.
Still for that read-out and setting: as for `N#CC1(/N=N/c2ccc(S(=O)(=O)Nc3ncccn3)cc2)C(=O)NC(=S)NC12CCCCC2` (stereo not drawn) [Compound 5c], the figure is 3.84.

Test system in a further data set: not listed separately
As to the kind of experiment: Cytotoxicity screening via crystal violet assay. Particulars: African green monkey, Vero cells. It is filed as cell-based. As for the experimental part: A volume of 100 µL of cell suspension containing 10^4 cells was placed in each well of a 96-well plate. The plates containing the cells were then placed in a 5% humidified CO2 incubator at 37 °C for 24 h to allow the cells to form a confluent monolayer. By twofold serial dilution, each compound was diluted in 0.01 mL of medium, starting with a concentration of 1000 µg/ml. The diluted compounds were then cultured for 72 h at 37 °C in an environment with 5% CO2. Each concentration was tested 3 times. After the incubation period, the supernatant was discarded, and the cells were washed with 1x phosphate-buffered saline (PBS). The cells were then fixed with 100 µL of 10% formaldehyde and incubated at room temperature for 20 min. The cells were subsequently washed five times with running water. Next, 50 µL of a 0.1% solution of crystal violet dye (LOBA CHEMIE. LTD; C.I.No. 42555) was added to each well and incubated for 15 min. The cell monolayers were washed again and allowed to air dry. Finally, the crystal violet dye was dissolved by adding 200 µL of methanol, and the mixture was incubated for 20 min. The absorbance was measured via an ELISA plate reader (FLUOstar Omega Ω) at a wavelength of 570 nm. Cell viability was calculated as a percentage of the average optical density of the cell controls, which was set to 100%. The 50% cytotoxic concentration (CC50) was calculated via mean dose‒response curves via GraphPad Prism.
As to `CSC1NC(=O)C(C#N)C2(CCCCC2)N1` (stereo not drawn) [Compound 2], the CC50 at 72 h is 566 µg/mL (≈ 2360 µM).
`CC(=O)C(SC1NC(=O)C(C#N)C2(CCCCC2)N1)C(=O)Nc1ccccc1` (stereo not drawn) [Compound 3, 2-((5-cyano-4-oxo-1,3-diazaspiro[5.5]undecan-2-yl)thio)-3-oxo-N-phenylbutanamide]: the CC50 at 72 h is 509 µg/mL (≈ 1270 µM).
Still for that read-out and setting: the figure for `N#CC1(/N=N/c2ccccc2)C(=O)NC(=S)NC12CCCCC2` (stereo not drawn) [Compound 5a] is 43.9 µg/mL (≈ 134 µM).
In turn, `N#CC1(/N=N/c2ccc(S(N)(=O)=O)cc2)C(=O)NC(=S)NC12CCCCC2` (stereo not drawn) [Compound 5b] registered a CC50 at 72 h of 124 µg/mL (≈ 306 µM).
In the case of `N#CC1(/N=N/c2ccc(S(=O)(=O)Nc3ncccn3)cc2)C(=O)NC(=S)NC12CCCCC2` (stereo not drawn) [Compound 5c], it took 53.7 µg/mL (≈ 111 µM) to reach half-maximal cytotoxicity (CC50 at 72 h).

Source of the values: paper PMC11987438, “A novel approach utilizing spirocyclic thiopyrimidinone compounds against herpes simplex virus with underlying antiviral mechanisms of action” (Virology Journal, 2025).
